Measured values from patent US12043612B2, “Methods of manufacturing a bifunctional compound, ultrapure forms of the bifunctional compound, and dosage forms comprising the same” (Arvinas Operations, Inc., priority 2020, dated 2024).

Experiment: Exploratory stability study on Compound A drug substance (HPLC, water content, XRPD)
Format: physicochemical
Design: Water Content: unit: wt %
Method: This is a reverse phase high performance liquid chromatography (HPLC) method devised to determine the assay and impurity profile of Compound A for release and stability testing. The method was qualified for its intended uses. Forced degradation studies were performed and used to qualify this method as stability indicating. The HPLC parameters are listed below in Table 6.
An exploratory stability study on Compound A is on-going. The stability of Compound A will be studied at 5° C., 25° C./60% RH, and 40° C./75% RH with sampling points at 1, 2, 3, and 6 months. Samples will be analyzed using the stability indicating method TEST-05187 (high performance liquid chromatography (HPLC)).
The critical quality attributes of the drug substance Compound A that will be monitored are appearance, purity, assay (wt %), impurities, water content, and x-ray powder diffraction (XRPD). The container and closure system for the stability study consists of double plastic (PE) bags placed inside an high-density polyethylene (HDPE) container.

[1] = Initial Date (about 3 months after date of manufacture)
[2] = Storage at 5° C. +/− 3° C., Initial Date + 1 Month
[3] = Storage at 5° C. +/− 3° C., Initial Date + 2 Months
[4] = Storage at 25° C. ± 2° C./60% RH ± 5%, Initial Date + 1 Month
[5] = Storage at 25° C. ± 2° C./60% RH ± 5%, Initial Date + 2 Months
[6] = Storage at 40° C. ± 2° C./75% RH ± 5%, Initial Date + 1 Month
[7] = Storage at 40° C. ± 2° C./75% RH ± 5%, Initial Date + 2 Months

## N#Cc1ccc(O[C@H]2CC[C@H](NC(=O)c3ccc(N4CCC(CN5CCN(c6cc7c(cc6F)C(=O)N(C6CCC(=O)NC6=O)C7=O)CC5)CC4)nn3)CC2)cc1Cl (stereo partly shown) [Compound A, N-[(1r,4r)-4-(3-chloro-4-cyanophenoxy)cyclohexyl]-6-[4-({4-[2-(2,6-dioxopiperidin-3-yl)-6-fluoro-1,3-dioxo-2,3-dihydro-1H-isoindol-5-yl]piperazin-1-yl}methyl)piperidin-1-yl]pyridazine-3-carboxamide]
At Date of Manufacture
  Appearance: Yellow
  HPLC Assay (wt %): 97.7 wt %
  HPLC Impurities (%) RRT 0.50 (Intermediate 5): 0.06%
  HPLC Impurities (%) RRT 0.89: 0.07%
  HPLC Impurities (%) RRT 0.90: ND (ND = <_0.02%)
  HPLC Impurities (%) RRT 0.92: 0.07%
  HPLC Impurities (%) RRT 0.94: ND (ND = <_0.02%)
  HPLC Impurities (%) RRT 0.96 (Intermediate 2): 0.16%
  HPLC Impurities (%) RRT 1.02: 0.39%
  HPLC Impurities (%) RRT 1.04 (Intermediate 3): 0.12%
  HPLC Impurities (%) RRT 1.05 (Impurity 1): <QL (QL = 0.05%)
  HPLC Impurities (%) RRT 1.07: 0.19%
  HPLC Impurities (%) RRT 1.23: 0.06%
  HPLC Impurities (%) RRT 1.32: ND (ND = <_0.02%)
  HPLC Impurities (%) RRT 1.36 (Intermediate 9): 0.05%
  HPLC Impurities (%) RRT 1.39: 0.67%
  HPLC Impurities (%) RRT 1.54: ND (ND = <_0.02%)
  HPLC Purity (%): 98.0%
  Total Impurities (%): 2.0%
  Water Content: 0.27
  Water Content (wt %): 0.27 wt %
  XRPD: Crystalline
[1]
  Appearance: Yellow
  HPLC Assay (wt %): 99.5 wt %
  HPLC Impurities (%) RRT 0.50 (Intermediate 5): 0.06%
  HPLC Impurities (%) RRT 0.89: 0.08%
  HPLC Impurities (%) RRT 0.90: <QL (QL = 0.05%)
  HPLC Impurities (%) RRT 0.92: 0.06%
  HPLC Impurities (%) RRT 0.94: ND (ND = <_0.02%)
  HPLC Impurities (%) RRT 0.96 (Intermediate 2): 0.18%
  HPLC Impurities (%) RRT 1.02: 0.38%
  HPLC Impurities (%) RRT 1.04 (Intermediate 3): 0.11%
  HPLC Impurities (%) RRT 1.05 (Impurity 1): ND (ND = <_0.02%)
  HPLC Impurities (%) RRT 1.07: 0.15%
  HPLC Impurities (%) RRT 1.23: 0.06%
  HPLC Impurities (%) RRT 1.32: ND (ND = <_0.02%)
  HPLC Impurities (%) RRT 1.36 (Intermediate 9): ND (ND = <_0.02%)
  HPLC Impurities (%) RRT 1.39: 0.45%
  HPLC Impurities (%) RRT 1.54: <QL (QL = 0.05%)
  HPLC Purity (%): 98.4%
  Total Impurities (%): 1.3%
  Water Content: 0.86
  Water Content (wt %): 0.86 wt %
  XRPD: Crystalline
[2]
  Appearance: Yellow
  HPLC Assay (wt %): 97.4 wt %
  HPLC Impurities (%) RRT 0.50 (Intermediate 5): 0.05%
  HPLC Impurities (%) RRT 0.89: 0.07%
  HPLC Impurities (%) RRT 0.90: <QL (QL = 0.05%)
  HPLC Impurities (%) RRT 0.92: <QL (QL = 0.05%)
  HPLC Impurities (%) RRT 0.94: ND (ND = <_0.02%)
  HPLC Impurities (%) RRT 0.96 (Intermediate 2): 0.18%
  HPLC Impurities (%) RRT 1.02: 0.33%
  HPLC Impurities (%) RRT 1.04 (Intermediate 3): 0.09%
  HPLC Impurities (%) RRT 1.05 (Impurity 1): ND (ND = <_0.02%)
  HPLC Impurities (%) RRT 1.07: 0.15%
  HPLC Impurities (%) RRT 1.23: 0.05%
  HPLC Impurities (%) RRT 1.32: ND (ND = <_0.02%)
  HPLC Impurities (%) RRT 1.36 (Intermediate 9): <QL (QL = 0.05%)
  HPLC Impurities (%) RRT 1.39: 0.58%
  HPLC Impurities (%) RRT 1.54: <QL (QL = 0.05%)
  HPLC Purity (%): 98.4%
  Total Impurities (%): 1.5%
  Water Content (wt %): 0.85 wt %
  XRPD: Crystalline
[3]
  Appearance: Yellow
  HPLC Assay (wt %): 97.4 wt %
  HPLC Impurities (%) RRT 0.50 (Intermediate 5): 0.05%
  HPLC Impurities (%) RRT 0.89: 0.07%
  HPLC Impurities (%) RRT 0.90: <QL (QL = 0.05%)
  HPLC Impurities (%) RRT 0.92: 0.06%
  HPLC Impurities (%) RRT 0.94: <QL (QL = 0.05%)
  HPLC Impurities (%) RRT 0.96 (Intermediate 2): 0.17%
  HPLC Impurities (%) RRT 1.02: 0.29%
  HPLC Impurities (%) RRT 1.04 (Intermediate 3): <QL (QL = 0.05%)
  HPLC Impurities (%) RRT 1.05 (Impurity 1): ND (ND = <_0.02%)
  HPLC Impurities (%) RRT 1.07: 0.15%
  HPLC Impurities (%) RRT 1.23: <QL (QL = 0.05%)
  HPLC Impurities (%) RRT 1.32: 0.05%
  HPLC Impurities (%) RRT 1.36 (Intermediate 9): <QL (QL = 0.05%)
  HPLC Impurities (%) RRT 1.39: 0.61%
  HPLC Impurities (%) RRT 1.54: <QL (QL = 0.05%)
  HPLC Purity (%): 98.4%
  Total Impurities (%): 1.5%
  Water Content (wt %): 1.0 wt %
  XRPD: Crystalline
[4]
  Appearance: Yellow
  HPLC Assay (wt %): 97.3 wt %
  HPLC Impurities (%) RRT 0.50 (Intermediate 5): 0.05%
  HPLC Impurities (%) RRT 0.89: 0.07%
  HPLC Impurities (%) RRT 0.90: <QL (QL = 0.05%)
  HPLC Impurities (%) RRT 0.92: 0.07%
  HPLC Impurities (%) RRT 0.94: ND (ND = <0.02%)
  HPLC Impurities (%) RRT 0.96 (Intermediate 2): 0.18%
  HPLC Impurities (%) RRT 1.02: 0.34%
  HPLC Impurities (%) RRT 1.04 (Intermediate 3): 0.07%
  HPLC Impurities (%) RRT 1.05 (Impurity 1): ND (ND = <0.02%)
  HPLC Impurities (%) RRT 1.07: 0.15%
  HPLC Impurities (%) RRT 1.23: 0.05%
  HPLC Impurities (%) RRT 1.32: ND (ND = <0.02%)
  HPLC Impurities (%) RRT 1.36 (Intermediate 9): <QL (QL = 0.05%)
  HPLC Impurities (%) RRT 1.39: 0.57%
  HPLC Impurities (%) RRT 1.54: <QL (QL = 0.05%)
  HPLC Purity (%): 98.3%
  Total Impurities (%): 1.6%
  Water Content: 0.93
  XRPD: Crystalline
[5]
  Appearance: Yellow
  HPLC Assay (wt %): 97.5 wt %
  HPLC Impurities (%) RRT 0.50 (Intermediate 5): 0.05%
  HPLC Impurities (%) RRT 0.89: 0.07%
  HPLC Impurities (%) RRT 0.90: <QL (QL = 0.05%)
  HPLC Impurities (%) RRT 0.92: 0.06%
  HPLC Impurities (%) RRT 0.94: <QL (QL = 0.05%)
  HPLC Impurities (%) RRT 0.96 (Intermediate 2): 0.17%
  HPLC Impurities (%) RRT 1.02: 0.28%
  HPLC Impurities (%) RRT 1.05 (Impurity 1): ND (ND = <0.02%)
  HPLC Impurities (%) RRT 1.07: 0.15%
  HPLC Impurities (%) RRT 1.23: 0.05%
  HPLC Impurities (%) RRT 1.32: <QL (QL = 0.05%)
  HPLC Impurities (%) RRT 1.36 (Intermediate 9): ND (ND = <0.02%)
  HPLC Impurities (%) RRT 1.39: 0.65%
  HPLC Impurities (%) RRT 1.54: <QL (QL = 0.05%)
  HPLC Purity (%): 98.3%
  Total Impurities (%): 1.5%
  Water Content: 1.2
  XRPD: Crystalline
[6]
  Appearance: Yellow
  HPLC Assay (wt %): 97.3 wt %
  HPLC Impurities (%) RRT 0.50 (Intermediate 5): 0.05%
  HPLC Impurities (%) RRT 0.89: 0.06%
  HPLC Impurities (%) RRT 0.90: <QL (QL = 0.05%)
  HPLC Impurities (%) RRT 0.92: 0.07%
  HPLC Impurities (%) RRT 0.94: ND (ND = <0.02%)
  HPLC Impurities (%) RRT 0.96 (Intermediate 2): 0.18%
  HPLC Impurities (%) RRT 1.02: 0.34%
  HPLC Impurities (%) RRT 1.04 (Intermediate 3): 0.08%
  HPLC Impurities (%) RRT 1.05 (Impurity 1): ND (ND = <0.02%)
  HPLC Impurities (%) RRT 1.07: 0.14%
  HPLC Impurities (%) RRT 1.23: 0.05%
  HPLC Impurities (%) RRT 1.32: ND (ND = <0.02%)
  HPLC Impurities (%) RRT 1.36 (Intermediate 9): <QL (QL = 0.05%)
  HPLC Impurities (%) RRT 1.39: 0.58%
  HPLC Impurities (%) RRT 1.54: <QL (QL = 0.05%)
  HPLC Purity (%): 98.3%
  Total Impurities (%): 1.6%
  Water Content: 1.0
  XRPD: Crystalline
[7]
  Appearance: Yellow
  HPLC Assay (wt %): 97.2 wt %
  HPLC Impurities (%) RRT 0.50 (Intermediate 5): 0.06%
  HPLC Impurities (%) RRT 0.89: 0.06%
  HPLC Impurities (%) RRT 0.90: <QL (QL = 0.05%)
  HPLC Impurities (%) RRT 0.92: 0.07%
  HPLC Impurities (%) RRT 0.94: <QL (QL = 0.05%)
  HPLC Impurities (%) RRT 0.96 (Intermediate 2): 0.18%
  HPLC Impurities (%) RRT 1.02: 0.28%
  HPLC Impurities (%) RRT 1.04 (Intermediate 3): <QL (QL = 0.05%)
  HPLC Impurities (%) RRT 1.05 (Impurity 1): ND (ND = <0.02%)
  HPLC Impurities (%) RRT 1.07: 0.14%
  HPLC Impurities (%) RRT 1.23: 0.06%
  HPLC Impurities (%) RRT 1.32: <QL (QL = 0.05%)
  HPLC Impurities (%) RRT 1.36 (Intermediate 9): ND (ND = <0.02%)
  HPLC Impurities (%) RRT 1.39: 0.63%
  HPLC Impurities (%) RRT 1.54: <QL (QL = 0.05%)
  HPLC Purity (%): 98.3%
  Total Impurities (%): 1.5%
  Water Content: 1.3
  XRPD: Crystalline
After 2 months at all temperature stations
  change in impurities and solid properties: no increase in impurities nor change in solid properties
After 5 months from the date of manufacture
  change in impurities and solid properties: no increase in impurities or change in solid properties
Stability study, all temperature stations
  change in water content: small increase in the water content
